Source: US6265437A, “Aminoalkanesulphonic acid derivatives, their preparation and their use as medicaments” (LIPHA, priority 2000, dated 2001)

Test: displacement of tritiated calcium acetylhomotaurinate from a preparation of rat brain section
Format: binding
Details: in vitro, displacement of titiated calcium acetylhomotaurinate
Excerpt: In in vitro tests, it has furthermore been shown that these compounds have the ability to displace titiated calcium acetylhomotaurinate from a preparation of rat brain section.

Compound | IC50 [µM]
CC(C)(C)C(=O)NCCCS(=O)(=O)O [Example 1, calcium 3-(2-2-(dimethyl)propanoylamino)propanesulphonate] | 46.9
CC(C)(C)C(=O)NCCCS(=O)(=O)O [Example 15, magnesium 3-(2,2-(dimethyl)propanoylamino)propanesulphonate] | 49.5
CC(=O)NC(C)CCS(=O)(=O)O (centres unmarked) [Example 17, calcium 3-(acetylamino)-3-methylpropanesulphonate] | 93
CC(C)C(=O)NCCCS(=O)(=O)O [Example 3, magnesium 3-(2-(methyl)propanoylamino)propanesulphonate] | 28.9
CC(C)CC(=O)NCCCS(=O)(=O)O [Example 14, magnesium 3-(3-(methyl)butanoylamino)propanesulphonate] | 42
